How the values were obtained:
S. aureus SH1000 = test: Antibiofilm assay (Calgary biofilm device); format: cell-based, Staphylococcus aureus
Description: A static peg assay for the prevention of bacterial biofilm formation was used as described previously. A lid carrying 96 polystyrene pegs was fitted into a microtiter plate with a peg hanging into each well. Two-fold serial dilutions of the compounds in 100 μl liquid broth per well were prepared in the microtiter plate. Subsequently, an overnight culture was diluted 1:100 into the respective liquid broth, and 100 μl (˜10^6 cells) was added to each well of the microtiter plate, resulting in a total amount of 200 μl medium per well. After placing the lid on the microtiter plate, samples containing Salmonella, Pseudomonas or E. coli were incubated statically in TSB 1/20 for 48 h at 25° C., whereas S. aureus was incubated in undiluted TSB at 37° C. for 48 h. After incubation, the lid was removed from the microtiter plate and liquid culture was transferred to a new microtiter plate prior to determining the prior to determining the planktonic growth in each well via OD600 measurements using a Synergy MX multimode reader (Biotek, Winooski, VT). The pegs were washed once in 200 μl PBS and the remaining attached bacteria were stained for 30 min with 200 μl 0.1% crystal violet in an isopropanol-methanol-PBS solution (1:1:18). Excess stain was washed off by placing the pegs in a 96-well plate filled with 200 μl distilled water per well. Afterwards, the pegs were air dried for 30 min and the dye bound to the adherent cells dissolved into 200 μl 30% glacial acetic acid. The OD570 of each well was measured using a Synergy MX multimode reader. Data was analysed using the GraphPad Prism 6 software.

Salmonella = test: Soft agar swimming assay; format: cell-based, Salmonella enterica serovar Typhimurium; details: 100 μM, 0.25% agar, 24 h, 25° C.
Description: Based on Kim & Surette (2003) Biol Proced Online 5, 189-196, swimming plates were made by mixing 30 ml TSB 1/20 with 0.25% agar. These plates contained either a final concentration of 100 μM agaric or the corresponding amount of DMSO. After 2 h drying at room temperature, 3 μl of an overnight culture was inoculated by piercing the surface of the agar with the pipette tip. The plates were incubated upright for 24 h at 25° C., afterwards the size of the halo was measured and visually recorded.

motA deletion mutant = test: Biofilm formation of motA deletion mutant; format: cell-based, Salmonella; details: addition of agaric acid to the deletion mutant
[1] = tested on: S. Typhimurium SL1344 (S1) in mixed-species biofilm with S2 and E1; test: Mixed-species tolerance assay (CFU); format: cell-based, Salmonella Typhimurium and E. coli
Description: The monospecies and mixed-species biofilms were grown on petri dishes for 48 h at 25° C. as described above. The medium was then replaced by 5 ml PBS with either 0.25% H2O2 or 1 μM ciprofloxacin and the biofilms were incubated for an additional 1 h at 25° C. Subsequently, the biofilms were scraped off and plated out on solid LB agar plates for CFU determination. To differentiate between the strains, S1 was labelled with constitutive gfpmut3 on a plasmid, while S2 and E1 were labelled with plasmid-encoded constitutive dsRed.T4. Differences in colony shape and size allowed differentiation between S2 and E1 during CFU counting.

[2] = tested on: Salmonella genes related to biofilm formation; test: Microtiter-plate-based GFP promoter fusion assay; format: cell-based, Salmonella Typhimurium ATCC 14028; details: 100 μM
Description: To unravel the mechanism by which agaric acid inhibits biofilm formation, an in house developed reporter GFP-promoter fusion library was screened. This library contains reporters for 130 Salmonella genes related to biofilm formation, including genes regulating matrix production, fimbriae and flagella synthesis, quorum sensing and c-di-GMP regulation (Table 2) [Robijns et al. (2014). Biofouling 30, 605-625.]. A time-lapse of the first 24 h of biofilm formation in microtiter plates was performed to identify genes that are differentially transcribed in the presence of 100 μM agaric acid. As these reporter fusions express the stable GFPmut3 variant as a fluorophore, the measured fluorescence values are the accumulation of fluorescence over time [Robijns et al. (2014). Biofouling 30, 605-625](FIG. 2).
1.5 μl of the reporter fusions' ONCs were transferred in three repeats to black polystyrene, clear-bottomed microtiter plates (Greiner bio-one 655096) containing 200 μl of 1/20 TSB with either a final concentration of 100 μM agaric or the corresponding amount of DMSO. Subsequently, the microtiter plates were incubated statically, at 25° C. for 24 h. Every 3 h, the fluorescence (excitation 488 nm, emission 511 nm) and absorbance at 600 nm (OD600) were measured using a Synergy MX multimode reader. For data analysis, blank measurements were subtracted from both the fluorescence (using a promoterless pFPV25 vector as control) and OD600. The ratio between the different OD600 values of the strains/conditions was used to normalize any effects on the fluorescence caused by growth differences in the bacteria. Significant differences in the level of fluorescence between treatment and control were determined using a two-tailed Student t-test (P<0.05).

[3] = tested on: S. Typhimurium ATCC 14028; test: Microscopic analysis of fluorescently labelled biofilms; format: cell-based, Salmonella enterica serovar Typhimurium; details: 100 μM, 48 h
Description: ONCs of S. Typhimurium ATCC 14028 containing the pFPV25.1 plasmid encoding for constitutive GFPmut3 productions were normalized to an an OD595 of 3.2 and 20 μl was added to a glass bottom microwell dishes (35 mm Ø petri dish, 20 mm Ø microwell) containing 2 ml 1/20 TSB and 100 μg ml^−1 of ampicillin and a final concentration of 100 μM agaric or the corresponding amount of DMSO. Around 12*10^7 ml^−1 cells were inoculated and incubated under static conditions at 25° C. for 48 h. After incubation, the planktonic phase was gently poured off and the biofilm was washed with 1 ml PBS. Biofilms were visualized with […]

In the case of `CCCCCCCCCCCCCCCCC(C(=O)O)C(O)(CC(=O)O)C(=O)O` (stereo not shown) [Agaric acid, 2-hydroxynonadecane-1,2,3-tricarboxylic acid], the “planktonic growth (OD600)” value (S. aureus SH1000) is reported as “inhibits”, the “biofilm inhibition versus bactericidal effect” value (S. aureus SH1000; comparison of effective concentrations) is reported as “biofilm inhibition occurred already at a lower concentration than the bactericidal effect” and the biofilm formation (S. aureus SH1000; crystal violet staining, undiluted TSB, 37° C., 48 h) is reported as “inhibits”. The “swimming motility (halo formation)” value (Salmonella) was “no halo was formed”, the “swimming motility (halo formation)” value (Salmonella; listed as agaric acid) was “almost completely inhibited motility” and the “biofilm formation of motA deletion mutant” value (motA deletion mutant) was “did not further reduce biofilm formation”. For the same molecule, the “enhanced tolerance of S1 in mixed-species conditions” value ([1]; 0.25% H2O2 or 1 μM ciprofloxacin, 1 h) was “completely abolished the enhanced tolerance of S1”, the “number of S1 cells surviving antimicrobial treatment in mixed-species communities” value ([1]; in presence of agaric acid) was “lowest number of S1 cells surviving antimicrobial treatment” and the “tolerance of remaining biofilm cells towards ciprofloxacin and H2O2” value ([1]; preventive treatment, 0.25% H2O2 or 1 μM ciprofloxacin, 1 h) was “reduced the tolerance of the remaining biofilm cells”. The “transcription of class III flagellar genes flgM, flgK and motA” value [2] was “significantly reduced”, the “transcription of tdcA, flgB, fljB and fliC” value [2] was “not decreased at consecutive points” and the “transcription of flhDC” value ([2]; between 9 h and 15 h) was “increased compared to the control”. For the same molecule, the “transcription of csgB and adrA” value ([2]; first 24 h) was “not influenced”, the “transcription of central biofilm regulatory genes CsgD and RpoS” value ([2]; first 24 h of biofilm formation) was “not downregulated” and the “transcription of flagellar sigma factor fliA” value ([2]; from 12 h onwards) was “significantly inhibited”. The “biofilm density by microscopy” value [3] was “less dense compared to the control”.
